From patent publication US6835382B2, “Ii peptide therapeutics to enhance antigen presentation” (University of Massachusetts, priority 1996, dated 2004)
Non-standard residues stand in square brackets, D forms with d. hArg = N=C(N)NCCCC[C@H](N)C(=O)O; Cit = NC(=O)NCCC[C@H](N)C(=O)O; Orn = NCCC[C@H](N)C(=O)O

System: murine E^k MHC class II allele
Test: simultaneous assay, E^k allele (CH27 APC, TPc9.1 T hybridoma, THMCC82-103 or PGCC81-104)
Assay type: cell-based
Outline: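 Read-out is [3H]TdR incorporation into HT-2 indicator cells exposed to supernatant from a 24 h primary culture. That culture combined mitomycin C-treated APC (5×10^6 cells/mL, 0.025 mg/mL mitomycin C, 20 min, 37° C), peptide, effector compound and T hybridoma, all added at once.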

[1] = Table 8, AE peptide 4 μM (third), supernatant 1:4
[2] = Table 8, AE peptide 16 μM (second), supernatant 1:4
[3] = Table 8, AE peptide 64 μM (first), supernatant 1:4
[4] = Table 1, AE peptide 16 μM (second value), 0.075 μM THMCC82-103, supernatant 1:2
[5] = Table 1, AE peptide 64 μM (first value), 0.075 μM THMCC82-103, supernatant 1:2
[6] = Table 4, AE109 homolog 64 μM, supernatant 1:2

Ac-YRMKL hydrP KSAK-NH2 (Ac-YRMKL[hydrP]KSAK-NH2) [AE143]
Times Baseline Response, E^k [1]: 0.98 | Times Baseline Response, E^k [2]: 1.5, | Times Baseline Response, E^k [3]: 4.2,

Ac-YRMKL-NH2 [AE116]
Times Baseline Response, E^k [4]: 3.2 | Times Baseline Response, E^k [5]: 15.5

Ac-YRMKLP-NH2 [AE115]
Times Baseline Response, E^k [4]: 3.8 | Times Baseline Response, E^k [5]: 18.6

Ac-YRMKLPK-NH2 [AE113]
Times Baseline Response, E^k [4]: 6.7 | Times Baseline Response, E^k [5]: 15.5 | Times Baseline Response, Ek (Table 3, AE peptide 64 μM, supernatant 1:4, values reduced relative to E^d by a factor of 10): 24.9

Ac-YRMKLPKSAK-NH2 [AE109]
Times Baseline Response, E^k [4]: 2.2 | Times Baseline Response, E^k [5]: 6.9 | Times Baseline Response, E^k (Table 2, AE peptide 64 μM, 0.05 μM PGCC81-104, supernatant 1:2): 43.7 | Times Baseline Response, E^k [6]: 2.3 | Times Baseline Response, E^k [1]: 1.0 | Times Baseline Response, E^k [2]: 1.5, | Times Baseline Response, E^k [3]: 4.3, | Times Baseline Response, E^k (Table 10, AE peptide 64 μM, supernatant 1:2 (first value)): 66.0 | Times Baseline Response, E^k (Table 10, AE peptide 64 μM, supernatant 1:4 (second value)): 56.3

Ac-Y[Cit]MKLPKSAK-NH2 [AE131]
Times Baseline Response, E^k [6]: 0.8 | Times Baseline Response, E^k (Table 15, AE peptide 16 μM, supernatant 1:4): 4.1

Ac-Y[Orn]MKLPKSAK-NH2 [AE130]
Times Baseline Response, E^k [6]: 1.1

Ac-Y[hArg]MKLPKSAK-NH2 [AE132]
Times Baseline Response, E^k [6]: 5.5 | Times Baseline Response, E^k (Table 16, AE peptide 4 μM, supernatant 1:8): 2.2

Ac-l RMKLPK-NH2 [AE160]
Times Baseline Response, E^k (Table 11, AE peptide 64 μM, supernatant 1:4): 1.7

YRMKLPKSAKPVSQMR [AE101]
Times Baseline Response, E^k [4]: 0.8 | Times Baseline Response, E^k [5]: 1.0
